Experimental data from US10766888B1, “HMOX1 inducers” (Mitobridge Inc., priority 2019, dated 2020).
“Also recorded” adds a separate entry of the source.

How the values were obtained:
HbSS Townes sickle mice = assay: Heme-induced vaso-occlusion (stasis) in HbSS Townes sickle mice; type: in vivo; conditions: 10, 25, 50 mg/kg PO once daily for 8 days, 1 h after heme infusion
Text: Townes-SS mice were gavaged once daily with Vehicle or the compound of Example 17 for 8 days. After the last gavage dorsal skin-fold chambers were implanted on the mice and 20-22 flowing venules were selected and mapped in the subcutaneous skin using intravital microscopy. Mice were then infused via the tail vein with Panhematin (3.2 μmots heme/kg body weight). One hour after infusion each venule was re-examined for microvascular stasis (no flow) and data are expressed as % stasis. Stasis values are means+SD. One-Way ANOVA with Dunnett's Multiple comparison to Vehicle ****P<0.0001
Dosing Scheme of HMOX Inducers to HbSS Townes Sickle Mice
HbSS Townes sickle mice were oral gavaged once daily with Vehicle or the compound of Example 17 listed below for 8 days. To minimize experimental inconsistency, fresh formulation was prepared every day and vortexed prior to drawing test article into syringe for each dosing, and dosing was performed by the same individual throughout the day. The last-day dose was administered by oral gavage 4 hours prior to hemin infusion described below. • 1. […]
Male and female sickle mice, approximately 12 weeks of age, were weighed before surgery. […] All of the selected venules were re-examined at 1 h after hemin infusion, and the number of static (no flow) venules was counted and expressed as percent stasis. […]

[1] = tested on: Primary human pulmonary artery endothelial cells (HPAEC); assay: Glutathione (GSH) levels in primary human endothelial cells under hemin stress; type: cell-based
Method: Example 149. Glutathione (GSH) Levels in Primary Human Endothelial Cells
Primary human pulmonary artery endothelial cells (HPAEC) (Lonza # CC-2530) cultured in endothelial cell growth medium-2 (EGM2 media, Lonza # CC-3162) were seeded in white 96-well plate (Corning® #3610) at 12.5 k cells per well and placed at 37° C. in 5% CO2. 18-24 hr post seeding, cells were treated with the compound of Example 17 via media change. 24 hr post treatment with the compound, cells were treated using a freshly prepared hemin stock (Sigma-Aldrich #51280 in 0.1N NaOH) alone or with the compound of Example 17. […] Media was aspirated off and GSH-Glo™ Glutathione Assay (Promega # V6911) was run following the manufacturer's protocol. White bottom plate seal (PerkinElmer #6005199) was used during read. Analysis was done using Softmax Pro.

Cn1c(Nc2nc3ccccc3o2)nc2cc(C(=O)NCCOCCO)ccc21 [Example 17, 2-(benzo[d]oxazol-2-ylamino)-N-(2-(2-hydroxyethoxy)ethyl)-1-methyl-1H-benzo[d]imidazole-5-carboxamide]
microvascular stasis compared with Vehicle (in words) (HbSS Townes sickle mice): significantly reduced; also recorded: dose responsively inhibit | GSH levels / protection from hemin mediated oxidative stress (in words) ([1]; 24 hr pre-incubation, 30 min hemin stress): protects these cells from hemin mediated oxidative stress | toxicity by visual inspection of cells ([1]; after 30 min of hemin stress): no toxicity
